Common to all, as to assay: biochemical
Assay [1] has as its target Fluc-Bpe (Bordetella pertussis, UniProt Q7VYU0, R29K). The source says:
planar lipid bilayer, block of fluoride current, two-site fit on Fluc-Bpe

The target in assay [2] is Fluc-Bpe (Bordetella pertussis, UniProt Q7VYU0, E88Q/R29K/S83C). The source says: (§1) planar lipid bilayer, block of fluoride current, oriented channels, single-site fit on Fluc-Bpe
Assay [3] concerns the target Fluc-Bpe (Bordetella pertussis, UniProt Q7VYU0, R29K/S83C).
Excerpt: as §1

The Ki is a dissociation constant, usually derived from enzyme kinetics or from competition with a known ligand. Lower therefore signals a stronger hold on the target.

Sequence of Fluc-Bpe (Bordetella pertussis, UniProt Q7VYU0, R29K) (Q7VYU0 whole entry R29K): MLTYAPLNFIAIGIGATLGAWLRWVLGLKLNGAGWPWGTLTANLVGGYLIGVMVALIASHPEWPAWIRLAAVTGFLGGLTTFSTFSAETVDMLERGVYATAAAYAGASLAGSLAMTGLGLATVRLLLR
Sequence of Fluc-Bpe (Bordetella pertussis, UniProt Q7VYU0, R29K/S83C) (Q7VYU0 whole entry R29K/S83C): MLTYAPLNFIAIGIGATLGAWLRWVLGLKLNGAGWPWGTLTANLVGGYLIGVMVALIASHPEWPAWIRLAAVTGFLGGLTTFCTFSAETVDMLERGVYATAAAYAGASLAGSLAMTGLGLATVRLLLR
Sequence of Fluc-Bpe (Bordetella pertussis, UniProt Q7VYU0, E88Q/R29K/S83C) (Q7VYU0 whole entry E88Q/R29K/S83C): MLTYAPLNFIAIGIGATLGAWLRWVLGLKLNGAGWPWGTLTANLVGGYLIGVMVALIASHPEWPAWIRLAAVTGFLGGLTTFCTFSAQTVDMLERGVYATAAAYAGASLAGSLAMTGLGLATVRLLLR

On to `N#CO` [OCN^-], for which the Ki in assay [1] was determined as 6.8 mM; in assay [2] it was 48.9 mM; in assay [3], 7.9 mM.
Turning to `N#CS` [SCN^-], affinity in assay [1] was put at a Ki of 9 mM.
Compound `O=[N+]([O-])O` [NO3^-] yielded a Ki in assay [1] of 45 mM.

The record behind these values is article PMC8315801, “The fluoride permeation pathway and anion recognition in Fluc family fluoride channels” (eLife, 2021).
